In ChEMBL document CHEMBL3745617 (J Med Chem, 2015) one finds Activity data, which are given here for 1 compound.

The source made the active and inactive calls. No cut-off for these calls is given here.

The assay relates to MV4-11. The assay can be described thus: Induction of apoptosis in human MV4-11 cells assessed as cleaved PARP level at 0.03 to 1 uM after 48 hrs by immunoblot analysis. In kind it is functional, cell-based. A general note: Immunoblotting shows a protein as a band on a membrane.

As to `CN(C)CC(=O)N1CCC[C@@H](n2nc(-c3ccc(Oc4ccccc4)cc3)c3c(N)ncnc32)C1`, the result was Active.
